Values quoted from earlier work, collected in US9540691B2, “Assays and methods for selecting a treatment regimen for a subject with depression” (THE GENERAL HOSPITAL CORPORATION, priority 2011, dated 2017).
Like-named read-outs stand apart in the source and are kept apart here.

System: adults with DSM-IV MDD, partial or nonresponse to an SSRI
Conditions: cited from earlier work

Nc1nc(=O)c2c([nH]1)NCC(CNc1ccc(C(=O)N[C@@H](CCC(=O)O)C(=O)O)cc1)N2C=O (mixture of isomers) [Folinic acid]
HAM-D-17 score after treatment (16 completers, decreased from 19.1+/−3.9, p<0.01): 12.8+/−7.0 | remission (HAM-D-17 no greater than 7) (ITT sample): 18% | remission (HAM-D-17 no greater than 7) (completers): 19% | response (at least 50% reduction in HAM-D-17) (completers): 31% | Folate levels after treatment (folinic acid 15-30 mg/day added to SSRIs, 8 weeks, rose from 28+/−19, p<0.001): 301 ± 203 ng/mL | response (at least 50% reduction in HAM-D-17) (intent-to-treat (ITT) sample): 27%
